In ChEMBL document CHEMBL4334512, “Rationally Designed, Conformationally Constrained Inverse Agonists of RORγt-Identification of a Potent, Selective Series with Biologic-Like in Vivo Efficacy” (J Med Chem, 2019):

How the values were obtained:
[1] = Half life in mouse liver microsomes; type: ADME, Microsome
[2] = target: T1, Nuclear receptor subfamily 1 group I member 2 (Homo sapiens, UniProt O75469); experiment: Activity at PXR (unknown origin)
T1 sequence (O75469 whole entry): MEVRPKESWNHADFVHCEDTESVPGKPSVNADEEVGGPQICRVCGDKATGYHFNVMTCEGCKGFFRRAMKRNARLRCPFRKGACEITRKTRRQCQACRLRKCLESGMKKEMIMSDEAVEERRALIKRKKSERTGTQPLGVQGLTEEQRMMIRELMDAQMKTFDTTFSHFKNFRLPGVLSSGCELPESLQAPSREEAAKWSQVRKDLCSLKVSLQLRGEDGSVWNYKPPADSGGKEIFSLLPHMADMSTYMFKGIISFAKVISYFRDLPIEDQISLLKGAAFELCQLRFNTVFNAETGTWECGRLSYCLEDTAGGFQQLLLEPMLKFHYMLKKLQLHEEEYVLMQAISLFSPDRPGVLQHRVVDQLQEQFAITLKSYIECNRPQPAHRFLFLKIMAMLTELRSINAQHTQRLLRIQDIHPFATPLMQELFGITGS

[3] = target: T2, Nuclear receptor ROR-alpha (Homo sapiens, UniProt P35398); experiment: Activity at RORalpha (unknown origin)
T2 sequence (P35398 whole entry): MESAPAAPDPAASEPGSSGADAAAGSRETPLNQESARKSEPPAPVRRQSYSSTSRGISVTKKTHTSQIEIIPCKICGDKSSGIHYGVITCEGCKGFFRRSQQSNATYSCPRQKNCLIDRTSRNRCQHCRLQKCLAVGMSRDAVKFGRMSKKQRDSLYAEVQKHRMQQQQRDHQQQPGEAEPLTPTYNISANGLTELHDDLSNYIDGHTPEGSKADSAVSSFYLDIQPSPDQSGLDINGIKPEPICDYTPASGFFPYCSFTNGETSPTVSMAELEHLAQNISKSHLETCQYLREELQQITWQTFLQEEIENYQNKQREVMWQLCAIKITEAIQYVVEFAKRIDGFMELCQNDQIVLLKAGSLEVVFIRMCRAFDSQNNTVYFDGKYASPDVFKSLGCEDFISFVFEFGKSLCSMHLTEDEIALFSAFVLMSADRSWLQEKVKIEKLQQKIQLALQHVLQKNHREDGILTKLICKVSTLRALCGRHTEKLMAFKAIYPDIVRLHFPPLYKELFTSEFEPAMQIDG

[4] = Drug level in Balb/c mouse at 10 mg/kg, po after 24 hrs; type: ADME, organism-based; conditions: in vivo, read-out: Drug uptake
[5] = target: T3, Nuclear receptor ROR-beta (Homo sapiens, UniProt Q92753); experiment: Agonist activity at RORbeta (unknown origin) by Gal4-Luc reporter gene assay
T3 sequence (Q92753 whole entry): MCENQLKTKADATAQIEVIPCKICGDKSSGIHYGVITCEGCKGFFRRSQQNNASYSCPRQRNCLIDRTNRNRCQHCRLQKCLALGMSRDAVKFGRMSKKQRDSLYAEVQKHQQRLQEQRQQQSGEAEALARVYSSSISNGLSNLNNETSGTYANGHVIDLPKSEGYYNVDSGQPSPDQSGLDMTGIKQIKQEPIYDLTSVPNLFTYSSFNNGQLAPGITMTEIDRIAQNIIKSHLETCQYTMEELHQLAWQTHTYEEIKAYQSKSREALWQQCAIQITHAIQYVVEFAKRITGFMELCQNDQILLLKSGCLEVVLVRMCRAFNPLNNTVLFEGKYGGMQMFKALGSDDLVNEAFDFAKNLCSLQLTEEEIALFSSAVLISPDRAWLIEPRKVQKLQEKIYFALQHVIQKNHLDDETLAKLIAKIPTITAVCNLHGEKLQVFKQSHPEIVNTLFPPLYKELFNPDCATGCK

Cytochrome P450 1A2 = target: T4, Cytochrome P450 1A2 (Homo sapiens, UniProt P05177); experiment: Inhibition of recombinant CYP1A2 (unknown origin); type: ADME
T4 sequence (P05177 whole entry): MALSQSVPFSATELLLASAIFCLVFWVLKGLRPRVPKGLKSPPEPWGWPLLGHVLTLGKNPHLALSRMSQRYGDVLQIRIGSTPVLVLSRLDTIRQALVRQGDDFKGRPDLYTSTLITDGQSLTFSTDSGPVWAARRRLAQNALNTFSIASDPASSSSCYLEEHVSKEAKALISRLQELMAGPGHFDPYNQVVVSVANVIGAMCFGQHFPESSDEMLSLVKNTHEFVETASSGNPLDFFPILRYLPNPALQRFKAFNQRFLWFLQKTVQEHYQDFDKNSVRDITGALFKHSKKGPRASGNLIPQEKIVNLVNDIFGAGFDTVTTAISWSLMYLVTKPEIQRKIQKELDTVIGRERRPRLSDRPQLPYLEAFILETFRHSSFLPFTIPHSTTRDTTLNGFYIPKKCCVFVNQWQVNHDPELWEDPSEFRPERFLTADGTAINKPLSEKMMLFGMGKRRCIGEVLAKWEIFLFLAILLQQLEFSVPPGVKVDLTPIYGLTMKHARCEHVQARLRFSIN

Cytochrome P450 2C19 = Cytochrome P450 2C19 (Homo sapiens, UniProt P33261); experiment: Inhibition of recombinant CYP2C19 (unknown origin); type: ADME
Cytochrome P450 2D6 = Cytochrome P450 2D6 (Homo sapiens, UniProt P10635); experiment: Inhibition of recombinant CYP2D6 (unknown origin); type: ADME
[6] = Cmax in mouse at 4 mg/kg, po; type: ADME, organism-based; design: dose 4 mg/kg, route oral; conditions: in vivo
[7] = Clearance in rat at 2 mg/kg, iv; type: ADME, organism-based; conditions: in vivo
[8] = Clearance in dog at 1 mg/kg, iv; type: ADME, organism-based, Canis lupus familiaris; conditions: in vivo
[9] = Volume of distribution at steady state in dog at 1 mg/kg, iv; type: ADME, organism-based, Canis lupus familiaris; conditions: in vivo, read-out: Vdss
[10] = Oral bioavailability in mouse at 4 mg/kg; type: ADME, organism-based; conditions: in vivo
Mus musculus [11] = experiment: Suppression of ear thickness in mouse model of IL-23 induced acanthosis model of psoriasis at 3 mg/kg, po BID for 10 days measured every other day relative to control; type: functional; conditions: 240 h
Mus musculus [12] = experiment: Suppression of ear thickness in mouse model of IL-23 induced acanthosis model of psoriasis at 3 mg/kg, po BID for 10 days measured every other day relative to anti-IL-23 positive control; type: functional
Mus musculus [13] = experiment: Suppression of IL-22 RNA expression in skin region of mouse model of IL-23 induced acanthosis model of psoriasis at 10 mg/kg, po BID for 10 days measured every other day relative to control; type: functional; conditions: 240 h
Mus musculus [14] = experiment: Suppression of IL-22 RNA expression in skin region of mouse model of IL-23 induced acanthosis model of psoriasis at 30 mg/kg, po BID for 10 days measured every other day relative to control; type: functional; conditions: 240 h

Sequence of Cytochrome P450 2D6 (P10635 whole entry): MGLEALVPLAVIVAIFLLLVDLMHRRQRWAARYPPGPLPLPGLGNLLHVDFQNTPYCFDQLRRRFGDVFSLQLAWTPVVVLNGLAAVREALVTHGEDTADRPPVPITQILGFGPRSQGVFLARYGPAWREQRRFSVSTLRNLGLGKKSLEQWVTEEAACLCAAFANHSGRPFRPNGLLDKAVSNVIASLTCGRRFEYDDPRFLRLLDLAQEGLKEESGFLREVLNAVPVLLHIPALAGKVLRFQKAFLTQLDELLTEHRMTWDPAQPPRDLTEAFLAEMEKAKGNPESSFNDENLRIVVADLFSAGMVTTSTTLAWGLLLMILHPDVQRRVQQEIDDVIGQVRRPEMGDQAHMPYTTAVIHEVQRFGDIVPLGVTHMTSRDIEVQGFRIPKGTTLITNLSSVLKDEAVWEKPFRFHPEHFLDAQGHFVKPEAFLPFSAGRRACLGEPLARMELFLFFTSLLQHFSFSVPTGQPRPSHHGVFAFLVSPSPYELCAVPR
Sequence of Cytochrome P450 2C19 (P33261 whole entry): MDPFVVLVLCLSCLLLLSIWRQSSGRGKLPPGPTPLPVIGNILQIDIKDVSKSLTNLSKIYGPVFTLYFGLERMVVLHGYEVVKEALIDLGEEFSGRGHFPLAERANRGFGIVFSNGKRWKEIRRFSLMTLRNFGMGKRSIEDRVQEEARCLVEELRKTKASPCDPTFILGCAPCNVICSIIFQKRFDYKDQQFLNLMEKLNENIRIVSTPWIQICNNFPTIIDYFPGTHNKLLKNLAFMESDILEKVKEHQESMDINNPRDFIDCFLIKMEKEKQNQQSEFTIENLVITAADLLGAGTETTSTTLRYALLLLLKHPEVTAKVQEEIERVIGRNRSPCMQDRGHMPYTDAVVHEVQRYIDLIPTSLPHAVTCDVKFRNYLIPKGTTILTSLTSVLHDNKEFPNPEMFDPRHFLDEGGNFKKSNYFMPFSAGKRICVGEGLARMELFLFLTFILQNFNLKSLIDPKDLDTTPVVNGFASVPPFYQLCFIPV

O=C(N1CC[C@@]2(S(=O)(=O)c3ccc(F)cc3)c3ccc(C(F)(C(F)(F)F)C(F)(F)F)cc3CC[C@@H]12)C1(O)CCS(=O)(=O)CC1
half-life [1]: > 2 h | IC50 [2]: > 40 µM | IC50 [3]: > 10 µM | concentration at 24 h [4]: 1100 nM | EC50 [5]: > 10 µM | IC50 (Cytochrome P450 1A2): > 20 µM | IC50 (Cytochrome P450 2C19): > 20 µM | IC50 (Cytochrome P450 2D6): > 20 µM | Cmax [6]: 2200 nM | clearance [7]: 3.7 mL/min/kg | clearance [8]: 0.35 mL/min/kg | Vd [9]: 2.6 L/kg | bioavailability [10]: 100% | inhibition in vivo at 3 mg/kg (Mus musculus [11]): 28% | Efficacy (Mus musculus [12]): 48% | inhibition in vivo at 10 mg/kg (Mus musculus [13]): 92% | inhibition in vivo at 30 mg/kg (Mus musculus [14]): 97%
